This is an account of results in patent publication US12606544B2, “JAK1 selective kinase inhibitor” (DIZAL (JIANGSU) PHARMACEUTICAL CO., LTD., priority 2019, dated 2026).

The target in assay [1] is T1, JAK2 (Homo sapiens, UniProt O60674).
T1 construct: purchased Carna Biosciences
The assay can be described thus: Lance Ultra Kinase Assay, recombinant JAK2. As to conditions: 5 mM ATP. The class given is biochemical. On the procedure:
(§1) Recombinant JAK1, JAK2, JAK3 and TYK2 purchased from Carna Biosciences. The inhibition potency of compounds against JAK1, JAK2, JAK3 and TYK2 was assessed using Lance Ultra Kinase Assay.
(§2) In brief, recombinant kinases were pre-incubated in the presence or absence of compound at room temperature for 15 minutes. The reaction was initiated by the addition of 5 mM ATP and substrate peptide which could be phosphorylated by kinases in the reaction. After 60 minutes incubation, the reaction was stopped by the addition of the detection reagent mix containing EDTA. The fluorescence was measured at 615 nm and 665 nm, respectively with excitation wavelength at 320 nm. The calculated signal ratio of 665 nm/615 nm is proportional to the kinase activity.

In assay [2] the target is T2, JAK1 (Homo sapiens, UniProt P23458).
T2 construct: purchased Carna Biosciences
T2 sequence (P23458 whole entry): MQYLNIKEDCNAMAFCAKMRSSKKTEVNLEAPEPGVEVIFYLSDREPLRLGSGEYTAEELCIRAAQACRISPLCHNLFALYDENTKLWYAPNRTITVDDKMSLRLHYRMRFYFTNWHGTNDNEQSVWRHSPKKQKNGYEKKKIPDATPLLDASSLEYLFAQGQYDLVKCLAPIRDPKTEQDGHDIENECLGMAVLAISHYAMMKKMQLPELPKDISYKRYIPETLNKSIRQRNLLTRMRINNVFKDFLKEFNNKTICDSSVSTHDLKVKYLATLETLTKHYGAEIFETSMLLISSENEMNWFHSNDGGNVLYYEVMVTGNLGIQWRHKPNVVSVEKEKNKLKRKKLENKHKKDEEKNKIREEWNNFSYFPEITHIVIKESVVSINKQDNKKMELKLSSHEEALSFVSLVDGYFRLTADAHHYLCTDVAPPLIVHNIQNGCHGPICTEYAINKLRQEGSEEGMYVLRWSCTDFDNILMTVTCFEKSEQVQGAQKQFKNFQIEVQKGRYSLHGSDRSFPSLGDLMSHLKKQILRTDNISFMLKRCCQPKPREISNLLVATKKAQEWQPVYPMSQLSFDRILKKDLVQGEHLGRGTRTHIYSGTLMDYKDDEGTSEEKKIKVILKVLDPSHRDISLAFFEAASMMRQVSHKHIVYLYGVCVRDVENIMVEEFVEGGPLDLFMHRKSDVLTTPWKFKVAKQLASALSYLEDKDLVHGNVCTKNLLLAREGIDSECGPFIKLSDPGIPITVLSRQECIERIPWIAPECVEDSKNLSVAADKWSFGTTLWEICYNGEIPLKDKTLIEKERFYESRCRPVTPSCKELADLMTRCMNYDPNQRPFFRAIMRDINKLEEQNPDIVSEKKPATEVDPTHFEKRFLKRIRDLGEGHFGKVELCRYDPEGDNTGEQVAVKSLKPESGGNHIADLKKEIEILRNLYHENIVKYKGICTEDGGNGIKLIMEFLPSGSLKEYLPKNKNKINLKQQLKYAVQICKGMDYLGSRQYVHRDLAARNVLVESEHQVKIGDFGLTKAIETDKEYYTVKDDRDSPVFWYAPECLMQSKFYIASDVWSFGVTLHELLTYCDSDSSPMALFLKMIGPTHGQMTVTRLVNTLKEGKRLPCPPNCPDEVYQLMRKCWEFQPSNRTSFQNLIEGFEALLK
As to the kind of experiment: Lance Ultra Kinase Assay, recombinant JAK1. In kind it is biochemical. As to conditions: 5 mM ATP. The method, then: as §1, §2

The target in assay [3] is T3, TYK2 (Homo sapiens, UniProt P29597).
T3 construct: purchased Carna Biosciences
T3 sequence (P29597 whole entry): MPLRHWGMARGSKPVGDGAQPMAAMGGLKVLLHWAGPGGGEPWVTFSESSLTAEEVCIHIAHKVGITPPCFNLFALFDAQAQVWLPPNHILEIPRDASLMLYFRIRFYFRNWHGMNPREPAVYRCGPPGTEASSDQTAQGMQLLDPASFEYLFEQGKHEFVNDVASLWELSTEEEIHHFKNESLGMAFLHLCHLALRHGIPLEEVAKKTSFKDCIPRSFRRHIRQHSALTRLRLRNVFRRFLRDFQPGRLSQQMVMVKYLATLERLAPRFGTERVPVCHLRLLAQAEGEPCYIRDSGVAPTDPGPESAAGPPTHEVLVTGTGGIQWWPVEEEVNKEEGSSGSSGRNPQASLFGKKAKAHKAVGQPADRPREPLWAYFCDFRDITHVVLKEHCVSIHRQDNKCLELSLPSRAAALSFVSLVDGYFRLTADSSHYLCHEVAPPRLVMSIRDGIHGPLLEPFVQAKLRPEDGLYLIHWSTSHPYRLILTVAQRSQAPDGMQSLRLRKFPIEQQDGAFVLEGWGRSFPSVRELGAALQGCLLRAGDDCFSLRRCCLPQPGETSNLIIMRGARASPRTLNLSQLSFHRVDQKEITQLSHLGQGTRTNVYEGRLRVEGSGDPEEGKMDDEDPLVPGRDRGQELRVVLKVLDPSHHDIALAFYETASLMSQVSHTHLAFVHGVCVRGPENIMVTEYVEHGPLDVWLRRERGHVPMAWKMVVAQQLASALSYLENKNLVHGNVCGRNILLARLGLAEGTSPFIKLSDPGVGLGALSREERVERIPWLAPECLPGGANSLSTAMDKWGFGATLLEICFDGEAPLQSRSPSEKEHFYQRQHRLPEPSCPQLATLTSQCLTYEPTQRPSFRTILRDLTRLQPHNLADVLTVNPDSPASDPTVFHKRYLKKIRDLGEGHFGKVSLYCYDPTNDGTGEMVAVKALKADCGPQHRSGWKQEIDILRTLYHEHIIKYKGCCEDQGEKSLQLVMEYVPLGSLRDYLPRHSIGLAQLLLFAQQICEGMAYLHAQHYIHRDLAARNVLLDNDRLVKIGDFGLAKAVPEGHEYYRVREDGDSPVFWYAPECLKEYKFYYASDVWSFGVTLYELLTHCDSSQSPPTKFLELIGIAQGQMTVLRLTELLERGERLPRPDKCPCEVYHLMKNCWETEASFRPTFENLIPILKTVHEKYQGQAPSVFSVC
As to the kind of experiment: Lance Ultra Kinase Assay, recombinant TYK2. In kind it is biochemical. As to conditions: 5 mM ATP. On the procedure: as §1, §2

Assay [4] concerns phosphorylation of STAT6. The assay can be described thus: Cellular p-STAT6 assay, IL-13 stimulated THP-1 cells, flow cytometry. The class given is cell-based. As to conditions: Homo sapiens, THP-1, THP-1 cells, IL-13 10 ng/ml; read-out: pSTAT6 IC50. On the procedure:
To detect phosphorylated STAT6 (pSTAT6), THP-1 cells were harvested by centrifugation at 250 g for 5 min and resuspended in assay medium (RPMI1640+10% FBS) to 2×10^5 cells/well. Test compounds were applied to assay plates in serial dilution from 1 μM to 0.3 nM in DMSO. THP-1 cells were incubated with serial diluted compounds for 60 min at room temperature, followed by stimulation of interleukin (IL-13, 10 ng/ml) for 30 min, fixed in Cytofix buffer (BD Biosciences), and permeabilized in 90% methanol on ice. PE anti-pSTAT6 (BD Biosciences) antibodies were stained for 60 min at room temperature before being analyzed by flow cytometry. In the assay the compounds were thus diluted and dose-response curves for inhibition of the signal determine the IC50 for the compounds.

Assay [5] has as its target T4, JAK3 (Homo sapiens, UniProt P52333).
T4 construct: purchased Carna Biosciences
T4 sequence (P52333 1-1124): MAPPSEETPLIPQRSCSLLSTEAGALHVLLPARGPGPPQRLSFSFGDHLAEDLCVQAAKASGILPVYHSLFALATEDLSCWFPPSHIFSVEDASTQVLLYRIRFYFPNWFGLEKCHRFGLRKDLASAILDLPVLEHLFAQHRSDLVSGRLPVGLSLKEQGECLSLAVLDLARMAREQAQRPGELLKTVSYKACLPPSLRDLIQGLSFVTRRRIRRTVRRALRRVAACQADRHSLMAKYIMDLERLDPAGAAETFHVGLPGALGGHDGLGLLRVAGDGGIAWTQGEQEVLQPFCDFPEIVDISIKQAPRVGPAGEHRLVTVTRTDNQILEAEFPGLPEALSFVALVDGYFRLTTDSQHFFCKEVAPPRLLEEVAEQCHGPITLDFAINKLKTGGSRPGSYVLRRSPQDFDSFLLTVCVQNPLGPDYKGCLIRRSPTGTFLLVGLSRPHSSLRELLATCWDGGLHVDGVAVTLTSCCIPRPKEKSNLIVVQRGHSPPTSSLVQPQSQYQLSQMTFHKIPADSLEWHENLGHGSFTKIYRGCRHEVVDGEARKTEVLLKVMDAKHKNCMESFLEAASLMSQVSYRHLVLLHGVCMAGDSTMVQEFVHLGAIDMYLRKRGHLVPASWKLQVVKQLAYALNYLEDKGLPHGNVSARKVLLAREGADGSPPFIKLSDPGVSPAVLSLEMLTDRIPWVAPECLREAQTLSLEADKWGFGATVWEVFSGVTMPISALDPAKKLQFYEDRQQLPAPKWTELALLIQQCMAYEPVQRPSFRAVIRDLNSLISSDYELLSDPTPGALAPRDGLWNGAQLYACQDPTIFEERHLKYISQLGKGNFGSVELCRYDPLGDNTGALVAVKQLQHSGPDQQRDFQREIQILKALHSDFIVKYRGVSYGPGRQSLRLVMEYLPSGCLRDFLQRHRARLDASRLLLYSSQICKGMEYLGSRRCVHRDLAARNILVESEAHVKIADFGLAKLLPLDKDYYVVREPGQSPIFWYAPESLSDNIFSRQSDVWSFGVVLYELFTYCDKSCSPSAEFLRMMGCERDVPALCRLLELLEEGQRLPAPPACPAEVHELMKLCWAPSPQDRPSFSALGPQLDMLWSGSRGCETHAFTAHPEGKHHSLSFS
The assay can be described thus: Lance Ultra Kinase Assay, recombinant JAK3. In kind it is biochemical. As to conditions: 5 mM ATP. On the procedure:
as §1, §2

As a reminder, the IC50 is the midpoint of a concentration-inhibition curve.

T1 sequence (O60674 whole entry): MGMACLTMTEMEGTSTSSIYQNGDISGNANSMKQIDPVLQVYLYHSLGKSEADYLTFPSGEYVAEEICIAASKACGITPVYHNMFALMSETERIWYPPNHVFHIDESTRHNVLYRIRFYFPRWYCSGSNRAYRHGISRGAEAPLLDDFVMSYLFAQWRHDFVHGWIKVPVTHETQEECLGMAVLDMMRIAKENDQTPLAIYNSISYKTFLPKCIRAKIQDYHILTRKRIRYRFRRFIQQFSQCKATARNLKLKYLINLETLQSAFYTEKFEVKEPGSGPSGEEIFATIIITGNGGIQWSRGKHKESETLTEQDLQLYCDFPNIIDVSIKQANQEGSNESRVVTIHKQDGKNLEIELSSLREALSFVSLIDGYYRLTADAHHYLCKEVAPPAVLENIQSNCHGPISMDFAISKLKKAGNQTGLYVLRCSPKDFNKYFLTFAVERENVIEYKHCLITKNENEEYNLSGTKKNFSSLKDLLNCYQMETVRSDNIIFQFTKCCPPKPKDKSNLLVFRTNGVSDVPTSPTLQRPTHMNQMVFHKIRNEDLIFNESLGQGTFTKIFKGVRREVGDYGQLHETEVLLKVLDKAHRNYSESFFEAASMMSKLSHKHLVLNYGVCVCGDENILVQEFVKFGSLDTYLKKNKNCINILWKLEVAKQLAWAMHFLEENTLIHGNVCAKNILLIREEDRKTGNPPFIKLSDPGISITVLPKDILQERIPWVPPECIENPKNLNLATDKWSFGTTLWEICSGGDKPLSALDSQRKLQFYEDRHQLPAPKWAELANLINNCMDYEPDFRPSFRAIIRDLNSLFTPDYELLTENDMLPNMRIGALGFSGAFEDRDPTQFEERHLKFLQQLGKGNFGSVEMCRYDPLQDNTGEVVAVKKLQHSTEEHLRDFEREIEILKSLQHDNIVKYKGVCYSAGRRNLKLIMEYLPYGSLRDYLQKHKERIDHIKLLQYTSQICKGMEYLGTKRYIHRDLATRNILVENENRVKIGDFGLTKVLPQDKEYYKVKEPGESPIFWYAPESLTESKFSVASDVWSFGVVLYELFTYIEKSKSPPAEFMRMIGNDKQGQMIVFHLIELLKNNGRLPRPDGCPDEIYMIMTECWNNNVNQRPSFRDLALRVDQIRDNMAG

Take `COC[C@H](C(=O)Nc1cccc2c(-c3nc(Nc4ccc(C(C)O)nc4)ncc3F)c[nH]c12)N1CCN(C)CC1` (single isomer, unassigned; isomer 2) [Example 9]: the half-maximal inhibitory concentration (IC50) in assay [1] amounted to 20 nM; in assay [2], 0.25 nM; in assay [3], 330 nM; in assay [4] it was 6.5 nM; in assay [5], 9950 nM.

In the case of `COC[C@H](C(=O)Nc1cccc2c(-c3nc(Nc4ccc5ncoc5c4)ncc3F)c[nH]c12)N1CCN(C)CC1` [Example 50, (R)-N-(3-(2-(benzo[d]oxazol-6-ylamino)-5-fluoropyrimidin-4-yl)-1H-indol-7-yl)-3-methoxy-2-(4-methylpiperazin-1-yl)propanamide], the IC50 in assay [1] is 119 nM; in assay [2] it was 0.11 nM; in assay [3] it was 772 nM; in assay [4] it was 14.4 nM; in assay [5], over 10000 nM.

Consider `COC[C@H](C(=O)Nc1cccc2c(-c3nc(Nc4ccc5c(c4)CCOC5=O)ncc3F)c[nH]c12)N1CCN(C)CC1` [Example 42, (R)-N-(3-(5-fluoro-2-((1-oxoisochroman-6-yl)amino)pyrimidin-4-yl)-1H-indol-7-yl)-3-methoxy-2-(4-methylpiperazin-1-yl)propanamide], for which the IC50 in assay [1] is 16 nM; in assay [2] it was 0.07 nM; in assay [3] it was 560 nM; in assay [4] it was 12.8 nM; in assay [5], 5260 nM.

Turning to `COC[C@H](C(=O)Nc1cccc2c(-c3nc(Nc4ccc5ocnc5c4)ncc3F)c[nH]c12)N1CCN(C)CC1` [Example 51, (R)-N-(3-(2-(benzo[d]oxazol-5-ylamino)-5-fluoropyrimidin-4-yl)-1H-indol-7-yl)-3-methoxy-2-(4-methylpiperazin-1-yl)propanamide], the IC50 is 186 nM in assay [1]; 0.23 nM in assay [2]; 1400 nM in assay [3]; 14.9 nM in assay [4]; over 10000 nM in assay [5].

As for `COC[C@H](C(=O)Nc1cccc2c(-c3nc(Nc4ccc(OCC(=O)OC)nc4)ncc3F)c[nH]c12)N1CCN(C)CC1` [Example 14, methyl (R)-2-((5-((5-fluoro-4-(7-(3-methoxy-2-(4-methylpiperazin-1-yl)propanamido)-1H-indol-3-yl)pyrimidin-2-yl)amino)pyridin-2-yl)oxy)acetate], the IC50 in assay [1] was 336 nM; in assay [2] it was 0.2 nM; in assay [3] it was 4200 nM; in assay [4], 7.3 nM; in assay [5] it was over 10000 nM.

In the case of `COC[C@H](C(=O)Nc1cccc2c(-c3nc(Nc4ccc(OCc5ncco5)nc4)ncc3F)c[nH]c12)N1CCN(C)CC1` [Example 54, (R)-N-(3-(5-fluoro-2-((6-(oxazol-2-ylmethoxy)pyridin-3-yl)amino)pyrimidin-4-yl)-1H-indol-7-yl)-3-methoxy-2-(4-methylpiperazin-1-yl)propanamide], the concentration for half-maximal inhibition (IC50) in assay [1] was 219 nM; in assay [2], 0.86 nM; in assay [3], 4880 nM; in assay [4] it was 15.3 nM; in assay [5] it was over 10000 nM.

On to `COC[C@H](C(=O)Nc1cccc2c(-c3nc(Nc4ccc5ncsc5c4)ncc3F)c[nH]c12)N1CCN(C)CC1` [Example 47, (R)-N-(3-(2-(benzo[d]thiazol-6-ylamino)-5-fluoropyrimidin-4-yl)-1H-indol-7-yl)-3-methoxy-2-(4-methylpiperazin-1-yl)propanamide], for which the IC50 is 81 nM in assay [1]; 0.13 nM in assay [2]; 556 nM in assay [3]; 14 nM in assay [4]; over 10000 nM in assay [5].

For `COC[C@H](C(=O)Nc1cccc2c(-c3nc(Nc4ccc(-c5ncco5)nc4)ncc3F)c[nH]c12)N1CCN(C)CC1` [Example 22, (R)-N-(3-(5-fluoro-2-((6-(oxazol-2-yl)pyridin-3-yl)amino)pyrimidin-4-yl)-1H-indol-7-yl)-3-methoxy-2-(4-methylpiperazin-1-yl)propanamide], the IC50 is 467 nM in assay [1]; 0.24 nM in assay [2]; 5250 nM in assay [3]; 8.5 nM in assay [4]; over 10000 nM in assay [5].

Take `COC[C@H](C(=O)Nc1cccc2c(-c3nc(Nc4ccc(-n5ccnc5)nc4)ncc3F)c[nH]c12)N1CCN(C)CC1` [Example 24, (R)-N-(3-(2-((6-(1H-imidazol-1-yl)pyridin-3-yl)amino)-5-fluoropyrimidin-4-yl)-1H-indol-7-yl)-3-methoxy-2-(4-methylpiperazin-1-yl)propanamide]: the IC50 was 403 nM in assay [1]; 0.82 nM in assay [2]; 2570 nM in assay [3]; 8.9 nM in assay [4]; over 10000 nM in assay [5].

Turning to `COC[C@H](C(=O)Nc1cccc2c(-c3nc(Nc4cnc(C)c(C(=O)OC)c4)ncc3F)c[nH]c12)N1CCN(C)CC1` [Example 7, methyl (R)-5-((5-fluoro-4-(7-(3-methoxy-2-(4-methylpiperazin-1-yl)propanamido)-1H-indol-3-yl)pyrimidin-2-yl)amino)-2-methylnicotinate], the 50% inhibitory concentration (IC50) was 58 nM in assay [1]; 0.21 nM in assay [2]; 634 nM in assay [3]; 6.2 nM in assay [4]; over 10000 nM in assay [5].

`COC[C@H](C(=O)Nc1cccc2c(-c3nc(Nc4cnn(C5CCOCC5)c4)ncc3F)c[nH]c12)N1CCN(C)CC1` [Example 18, (R)-N-(3-(5-fluoro-2-((1-(tetrahydro-2H-pyran-4-yl)-1H-pyrazol-4-yl)amino)pyrimidin-4-yl)-1H-indol-7-yl)-3-methoxy-2-(4-methylpiperazin-1-yl)propanamide]: the IC50 stood at 22 nM in assay [1]; 0.14 nM in assay [2]; 1090 nM in assay [3]; 7.6 nM in assay [4]; 7730 nM in assay [5].

Regarding `CNC(=O)COc1cncc(Nc2ncc(F)c(-c3c[nH]c4c(NC(=O)[C@@H](COC)N5CCN(C)CC5)cccc34)n2)c1` [Example 68, (R)-N-(3-(5-fluoro-2-((5-(2-(methylamino)-2-oxoethoxy)pyridin-3-yl)amino)pyrimidin-4-yl)-1H-indol-7-yl)-3-methoxy-2-(4-methylpiperazin-1-yl)propanamide], the IC50 in assay [1] was 71 nM; in assay [2], 0.22 nM; in assay [3] it was 1230 nM; in assay [4], 20.9 nM; in assay [5], 5360 nM.

`COC[C@H](C(=O)Nc1cccc2c(-c3nc(Nc4ccc5scnc5c4)ncc3F)c[nH]c12)N1CCN(C)CC1` [Example 26, (R)-N-(3-(2-(benzo[d]thiazol-5-ylamino)-5-fluoropyrimidin-4-yl)-1H-indol-7-yl)-3-methoxy-2-(4-methylpiperazin-1-yl)propanamide]: the IC50 is 100 nM in assay [1]; 0.07 nM in assay [2]; 1260 nM in assay [3]; 9.1 nM in assay [4]; over 10000 nM in assay [5].
